Like-named read-outs stand apart in the source and are kept apart here.
Experiments:
[1] = system: adherent cells or suspension cells; experiment: Hoechst 33342 nuclear staining (fraction of apoptotic nuclei); format: cell-based; set-up: key: 0 relating to no activity; 1 relating to weak activity comprising less than 70% of the cells; score 2 relating to strong activity comprising more than 70% of the cells
MRC5 = experiment: MTS proliferation assay, MRC5; format: cell-based; conditions: MRC5, 72 h incubation, read-out: MTS proliferation assay IC 50 MRC5
How it was run: (§1)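 Seed cells in complete RPMI-1640 medium and allow 24 h attachment. Add compounds to final 10 μM, 3 μM, 1 μM or 0.3 μM and incubate 72 h at 37° C. Add MTS, incubate 3 h more, then measure absorption at 492 nm.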

Jurkat [2] = experiment: MTS proliferation assay, Jurkat; format: cell-based, human; conditions: 72 h incubation, read-out: MTS proliferation assay IC 50 Jurkat
How it was run: (§2)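 Human lines, EGFP-transfected or not, grow in RPMI-1640 plus 5% or 10% FCS and 2-mercaptoethanol. They receive test compound for 72 h at final concentrations of 10, 3, 1 and 0.3 μM, and MTS conversion is measured at 492 nm.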

Jurkat [3] = experiment: PI staining for cell cycle distribution, Jurkat; format: cell-based, human; set-up: key: 0: no effect; 1: weak effect; 2: strong effect; conditions: Jurkat 3 μM, 24 h
Experimental: (§3) Cell lines are cultured in RPMI-1640 tissue culture medium containing either 5% or 10% fetal calf serum, 0.05 mM 2-mercaptoethanol, 2 mM glutamine and penicillin/streptomycin 50 μg/ml (complete medium) (Sigma, Buchs, Switzerland). General growth conditions are 37° C. and 7.5% CO2.
(§4) The following human cell lines (either EGFP transfected or not) are being used: HeLa (ATCC: CCL-2), KB (ATCC: CCL-17), MCF7 (ATCC: HTB-22), SK-BR-3 (ATCC: HTB-30), SK-Mel 1 (ATCC: HTB-67), SK-Mel 28 (ATCC: HTB-72), PC-3 (ATCC: CRL-1435), SW 480 (ATCC: CCL-228), NCl-H460 (ATCC: HTB-177), NCl-H1792 (ATCC: CRL-5895), HT1080 (ATCC: CCL-21), Jurkat (ATCC: TIB-152), Ramos (ATCC: CRL-1596), Raji (ATCC: CCL-86), H9 (ATCC: HTB-176), Hut78 (ATCC: TIB-161), K562 (ATCC: CCL 243), HL-60 (ATCC: CCL 240), U-87MG (ATCC: HTB-14), HepG2 (ATCC: HB-8065), U-2 OS (ATCC: HTB-96), Saos-2 (ATCC: HTB-85), U937 (ATCC: CRL 1593), Hs 578T (ATCC: HTB 126), HBL-100 (ATCC: HTB 124), Molt-4 (ATCC: CRL 1582).
(§5) 1-2*10^5 cells are seeded into 24 well tissue culture plates and incubated for 24 h prior to compound addition. Compounds are added for 24 h in a final concentration of 3 μM or 10 μM. Adherent cells are harvested by trypsinization. The cell suspensions are fixed by adding 2 parts ice cold ethanol 100% while vortexing. Then the samples are stored for >2 h at −20° C. Subsequently the cells are washed with PBS once and resuspended in 250 μl PBS containing 50 μg/ml PI (Calbiochem # 537059), then the samples are incubated at 37° C. for 30 minutes and subsequently analyzed on a FACSCalibur™ monitoring linear PI fluorescence activity on FL2. The readout allows the detection of a possible direct or indirect influence of the tested compounds on the cell cycle. The following events can occur: a) Generation of a subG1 peak indicative for DNA fragmentation, b) increase of the cell population arrested in G2M phase. Both events are scored by 1 for weak and 2 for strong occurrence. 0 indicates no occurrence at all.

Jily = experiment: MTS proliferation assay, Jily; format: cell-based; conditions: 72 h incubation, read-out: MTS proliferation assay IC 50 Jily
How it was run: as §1

HeLa [4] = experiment: PI staining for cell cycle distribution, HeLa; format: cell-based, human; set-up: key: 0: no effect; 1: weak effect; 2: strong effect; conditions: HeLa 10 μM, 24 h
Experimental: as §3, §4, §5

HeLa [5] = experiment: MTS proliferation assay, HeLa; format: cell-based, human; conditions: 72 h incubation, read-out: MTS proliferation assay IC 50 HeLa
How it was run: as §2

HT1080 = experiment: MTS proliferation assay, HT1080; format: cell-based, human; conditions: HT1080, 72 h incubation, read-out: MTS proliferation assay IC 50 HT1080
How it was run: as §2

[6] = cell population arrested in G2M phase
[7] = subG1 peak indicative for DNA fragmentation

SMILES | Hoechst 33342 nuclear staining score ([1]; H460, conc 0.01 μm) | Hoechst 33342 nuclear staining score ([1]; H460, conc 0.1 μm) | Hoechst 33342 nuclear staining score ([1]; H460, conc 1 μm) | Hoechst 33342 nuclear staining score ([1]; HeLa, conc 0.01 μm) | Hoechst 33342 nuclear staining score ([1]; HeLa, conc 0.1 μm) | Hoechst 33342 nuclear staining score ([1]; HeLa, conc 1 μm) | Hoechst 33342 nuclear staining score ([1]; Jily, conc 0.01 μm) | Hoechst 33342 nuclear staining score ([1]; Jily, conc 0.1 μm) | Hoechst 33342 nuclear staining score ([1]; Jily, conc 1 μm) | Hoechst 33342 nuclear staining score ([1]; Jurkat, conc 0.01 μm) | Hoechst 33342 nuclear staining score ([1]; Jurkat, conc 0.1 μm) | Hoechst 33342 nuclear staining score ([1]; Jurkat, conc 1 μm) | Hoechst 33342 nuclear staining score ([1]; MRC5, conc 0.01 μm) | Hoechst 33342 nuclear staining score ([1]; MRC5, conc 0.1 μm) | Hoechst 33342 nuclear staining score ([1]; MRC5, conc 1 μm) | Hoechst 33342 nuclear staining score ([1]; PBLs, conc 0.01 μm) | Hoechst 33342 nuclear staining score ([1]; PBLs, conc 0.1 μm) | Hoechst 33342 nuclear staining score ([1]; PBLs, conc 1 μm) | IC50 (Jily) [nM] | other results
Nc1nonc1-c1nc2ccccc2n1CC(=O)c1ccc(Cl)cc1 [Example 16] | 0 | 2 (score 2 relating to strong activity comprising more than 70% of the cells) | 2 (score 2 relating to strong activity comprising more than 70% of the cells) | 0 | 2 (score 2 relating to strong activity comprising more than 70% of the cells) | 2 (score 2 relating to strong activity comprising more than 70% of the cells) | 0 | 2 (score 2 relating to strong activity comprising more than 70% of the cells) | 2 (score 2 relating to strong activity comprising more than 70% of the cells) | 0 | 2 (score 2 relating to strong activity comprising more than 70% of the cells) | 2 (score 2 relating to strong activity comprising more than 70% of the cells) | 0 | 2 (score 2 relating to strong activity comprising more than 70% of the cells) | 2 (score 2 relating to strong activity comprising more than 70% of the cells) | 0 | 0 | 0 | 10 to 100 | IC50 (MRC5): 10 to 100 nM; IC50 (Jurkat [2]): 100 to 1000 nM; PI staining for cell cycle distribution, G2M (Jurkat [3]; [6]): 0; PI staining for cell cycle distribution, subG1 (Jurkat [3]; [7]): 0; PI staining for cell cycle distribution, G2M (HeLa [4]; [6]): 2; PI staining for cell cycle distribution, subG1 (HeLa [4]; [7]): 0; IC50 (HeLa [5]): 100 to 1000 nM; IC50 (HT1080): 10 to 100 nM
Nc1nonc1-c1nc2ccccc2n1CC(=O)c1ccc(Cl)c([N+](=O)[O-])c1 [Example 66, 4-[1-(4-Chloro-3-nitrophenacyl)-1H-benzimidazol-2-yl]-furazan-3-ylamine] | 0 | 0 | 2 (score 2 relating to strong activity comprising more than 70% of the cells) | 0 | 0 | 2 (score 2 relating to strong activity comprising more than 70% of the cells) | 0 | 0 | 2 (score 2 relating to strong activity comprising more than 70% of the cells) | 0 | 1 (1 relating to weak activity comprising less than 70% of the cells) | 2 (score 2 relating to strong activity comprising more than 70% of the cells) | 0 | 0 | 1 (1 relating to weak activity comprising less than 70% of the cells) | 0 | 0 | 0 | 100 to 1000 | melting point: 198 to 200 °C; IC50 (MRC5; Homo sapiens): 100 to 1000 nM; IC50 (Jurkat [2]; Homo sapiens): 10 to 100 nM; IC50 (HeLa [5]; Homo sapiens): 100 to 1000 nM; IC50 (HT1080; Homo sapiens, HT-1080): 100 to 1000 nM

Source: patent USRE42890E1, “Furazanobenzimidazoles” (Basilea Pharmaceutica AG, priority 2003, dated 2011)
